In ChEMBL document CHEMBL2069188, “Structural requirements for the antitubercular quaternized triflupromazine pharmacophore” (Bioorg Med Chem Lett, 2012):
Converted amounts (≈) assume the structure as drawn.

Test system: Mycobacterium tuberculosis
Test: Antitubercular activity against highly drug-resistant, non replicating, persistent Mycobacterium tuberculosis harboring Vibrio harveyii luciferase gene incubated under anaerobic condition measured after 28 hrs of aerobic recovery by LORA method
Type: functional

| SMILES | MIC90 [µM] |
| --- | --- |
| FC(F)(F)c1ccc2c(c1)N(Cc1cn(Cc3ccc(Cl)cc3)nn1)c1ccccc1S2 | > 100 |
| C[N+](C)(CCCN1c2ccccc2Sc2ccc(C(F)(F)F)cc21)Cc1ccc(I)cc1.[Br-] | 7.2 |
| C[N+](C)(CCCN1c2ccccc2Sc2ccc(C(F)(F)F)cc21)Cc1ccc(Br)cc1.[Br-] | 7.1 |
| CO[C@H]1/C=C/O[C@@]2(C)Oc3c(C)c(O)c4c(O)c(c(/C=N/N5CCN(C)CC5)c(O)c4c3C2=O)NC(=O)/C(C)=C\C=C\[C@H](C)[C@H](O)[C@@H](C)[C@@H](O)[C@@H](C)[C@H](OC(C)=O)[C@@H]1C [RIFAMPIN] | 0.61 (≈ 0.502 µg/mL) |
| C[N+](C)(CCCN1c2ccccc2Sc2ccc(C(F)(F)F)cc21)Cc1ccc(Cl)cc1.[Cl-] | 7.8 |
| C[N+](C)(CCCN1c2ccccc2Sc2ccc(C(F)(F)F)cc21)Cc1ccc(F)cc1.[Cl-] | 14.3 |
